Among the data in patent US20110081297A1, “Novel Substituted Pyrazoles, 1,2,4-Oxadiazoles, and 1,3,4-Oxadiazoles” (priority 2008, published 2011) are IC50 values, retold here.

One may read the IC50 as the concentration at which inhibition is half-maximal. A high value points to weaker potency in that assay.

Sequence of human AD brain tissue homogenate (P05067 whole entry): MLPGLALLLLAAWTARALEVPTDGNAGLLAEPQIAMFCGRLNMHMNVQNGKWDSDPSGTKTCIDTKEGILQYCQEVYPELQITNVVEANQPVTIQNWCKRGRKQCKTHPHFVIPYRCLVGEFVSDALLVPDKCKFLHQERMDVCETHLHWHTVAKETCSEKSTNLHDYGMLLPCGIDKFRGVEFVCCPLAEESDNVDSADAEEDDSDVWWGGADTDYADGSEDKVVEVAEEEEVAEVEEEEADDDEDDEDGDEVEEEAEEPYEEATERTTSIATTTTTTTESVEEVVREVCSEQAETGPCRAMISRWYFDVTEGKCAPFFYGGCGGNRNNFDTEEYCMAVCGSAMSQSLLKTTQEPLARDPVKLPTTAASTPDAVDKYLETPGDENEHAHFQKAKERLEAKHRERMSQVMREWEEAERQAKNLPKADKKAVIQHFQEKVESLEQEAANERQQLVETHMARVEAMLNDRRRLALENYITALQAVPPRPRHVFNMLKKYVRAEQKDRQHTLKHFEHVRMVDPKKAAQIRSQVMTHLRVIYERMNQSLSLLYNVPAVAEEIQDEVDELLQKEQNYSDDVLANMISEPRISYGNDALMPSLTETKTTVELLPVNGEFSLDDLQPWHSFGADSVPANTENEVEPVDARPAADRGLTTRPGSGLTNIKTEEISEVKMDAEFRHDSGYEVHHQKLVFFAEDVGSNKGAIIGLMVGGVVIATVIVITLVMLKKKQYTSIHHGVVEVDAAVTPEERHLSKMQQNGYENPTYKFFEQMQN

This assay has as its target human AD brain tissue homogenate (Homo sapiens, UniProt P05067). Briefly: Tissue homogenate binding assay (competition with [3H]-DMAB). The note with it: human AD brain (frontal cortex) homogenate, 1.5 nM [3H]-DMAB radioligand, room temperature, 90 minutes. How it is done:
PET radiotracer candidate compounds were then selected based on their high affinity competition with [^3H]-DMAB in binding to AD brain homogenates. These PET radiotracer candidate compounds were tested to determine if they were effective PgP substrates. Those PET radiotracer candidate compounds with little PgP substrate activity were radiolabeled with [^3H] or [^18F] and tested for binding affinity to human AD brain homogenates as well as binding to human non-AD brain homogenates and in autoradiographic studies using human AD and non-AD brain slices. Candidate radioligands were selected based on their strong binding affinity for human AD brain homogenates, and minimal binding to non-AD control homogenates. A low fraction of non-displaceable binding was also an important criterion. Minimization of white matter binding was an important criterion.
Postmortem frozen human brain samples from donors with clinical diagnosis of Alzheimer's diseases (AD) or normal control subjects (non-AD) were purchased from Analytical Biological Services Inc., at 701-4 Cornell Business Park, Wilmington, Del. 19801. Brain homogenates of frontal cortex were prepared, divided into aliquots and stored at −70° C. prior to use.
[^3H]-DMAB was synthesized at a specific activity of ˜80 Ci/mmol. The final concentration of radioligand for tissue homogenate binding assay was 1.5 nM. Brain homogenates were diluted with phosphate buffered saline (PBS) to 0.4 mg/mL from original 10 mg/mL volume and 200 μl was used in assay for a final concentration of […]. Unlabeled test compounds were dissolved in dimethylsulfoxide (DMSO) at 1 mM. Dilution of test compound to various concentrations was made with PBS containing 2% DMSO. Total binding was defined in the absence of competing compound, and non-displaceable binding was determined in the presence of 1 μM unlabeled self block. Compound dilutions (10×) were added into the assay tube (25 μL each/per tube, separately) containing 200 μL brain homogenate dilution, and the tubes were pre-incubated at room temperature for 10 minutes. Then radioligand dilutions (10×) were added into the assay tube (25 μl each/per tube, separately) to a final volume of 250 μL per tube. Incubation was carried out at room temperature (25° C.) for 90 minutes, and then the assay samples were filtered onto GF/C filters using Skatron 12 well harvester, washing on setting 5-5-5 (˜3×2 ml) ice cold buffer (PBS, pH 7.4). GF/C filter papers for the Skatron harvester were pre-soaked in 0.1% BSA for 1 hour at room temperature before use. Filters were punched into scintillation vials and counted in 2 mL Ultima Gold on Perkin Elmer Tri-Carb 2900TR for 1 minute. The data analysis was done with Prism software. […]
Consider `COc1ccc(-c2noc(-c3cnc(F)c(C)c3)n2)cc1`, for which the concentration for half-maximal inhibition (IC50) amounted to 77 nM.

As for `COc1ccc(-c2noc(-c3ccc4cc[nH]c4c3)n2)cc1`, the half-inhibitory concentration (IC50) worked out at 10 nM.

As to `COc1ccc(-c2cc(-c3ccc(N(C)C)cc3)n[nH]2)cc1`, the IC50 worked out at 10 nM.

Turning to `CN(C)c1ccc(-c2cc(-c3cnc4[nH]ccc4c3)n[nH]2)cc1`, the IC50 is 50 nM.
